Key:
[1] = test system: guinea pig cochleae; test: Intracochlear fluticasone proprionate for otoprotection of cisplatin dependent hearing loss, click ABR threshold; assay type: in vivo; conditions: control ear (no implant), day 28, after cisplatin; baseline day 14 23.9±2.3 dB; P≤0.0001
Description: Surgery: Albino guinea pigs were used for the single dose intracochlear implantation experiment. The guinea pigs received a single implant in one of their ears, and the other ear was used as internal control. Under general anesthesia, a postauricular incision was made over the bulla in the experimental ear. A small hole was drilled through the bulla using a posterior approach. The ear was positioned with the round window facing horizontally and superiorly. A 32-gauge needle was used to puncture the round window and the particle was put in contact with the perilymph in the scala tympani. A blood drop was placed over the round window injection site to avoid leakage of perilymphatic fluids and a suture was used to close the wound. Auditory Measurements; see FIGS. 5A and 5B: Animals were anesthetized for auditory testing. […] Lower ABR LS Means reading indicates better hearing. Error bars indicate Standard Error. Study Design: Particles were created and implanted into guinea pig cochleae as described in Examples 1-2. The study design is as follows: • Each animal: one ear implanted with extended release fluticasone particle (“implant ear”), other ear served as internal control (“control ear”). • Hearing was assessed via click (broad frequency) ABRs and DPOAE

[2] = test system: guinea pig cochleae; test: Intracochlear fluticasone proprionate for otoprotection of cisplatin dependent hearing loss, DPOAE; assay type: in vivo; conditions: 14 days after cisplatin application, no implant
Description: Surgery: Albino guinea pigs were used for the single dose intracochlear implantation experiment. The guinea pigs received a single implant in one of their ears, and the other ear was used as internal control. Under general anesthesia, a postauricular incision was made over the bulla in the experimental ear. A small hole was drilled through the bulla using a posterior approach. The ear was positioned with the round window facing horizontally and superiorly. A 32-gauge needle was used to puncture the round window and the particle was put in contact with the perilymph in the scala tympani. A blood drop was placed over the round window injection site to avoid leakage of perilymphatic fluids and a suture was used to close the wound. DPOAE (2f1-f2) Input/output functions were recorded. Response amplitude was recorded as a function of L2 (L1-L2=10 dB); primaries incremented together in 5 dB steps (from 20 to 80 dB SPL) spanning the frequency range f2=5.6-45.2 kHz (f2/f1=1.2). […] Higher DPOAE reading indicates better hearing. Error bars indicate Standard Error. […] The study design is as follows: • Each animal: one ear implanted with extended release fluticasone particle (“implant ear”), other ear served as internal control (“control ear”). • Hearing was assessed via click (broad frequency) ABRs and DPOAE

[3] = test system: patients; conditions: cited from earlier work

Compound: N.N.[Cl][Pt][Cl] [cisplatin, cis-diammine-dichloroplatinum(II)]
- ABR threshold, control ears following cisplatin treatment at day 28 [1]: 40.7±2.5 dB
- DPOAE responses, control ears [2]: absent

Compound: [H]/N=C(/N)N[C@H]1[C@H](O)[C@@H](O)[C@H](O[C@@H]2O[C@@H](C)[C@](O)(C=O)[C@H]2O[C@@H]2O[C@@H](CO)[C@H](O)[C@@H](O)[C@@H]2NC)[C@@H](N/C(N)=N\[H])[C@@H]1O [streptomycin]
- Patients displaying some vestibular impairment ([3]; one gram daily for 60 to 120 days): 25%
- Incidence of vestibular impairment ([3]; two grams per day): 75%

Source: patent US11291671B2, “Solid drug implants for intracochlear delivery of therapeutics for the treatment of Otic disorders” (O-Ray Pharma, Inc., priority 2012, dated 2022)
